Measurements from ChEMBL document CHEMBL5550222, “Synthesis and Biological Evaluation of Novel Psidium Meroterpenoid Derivatives against Cisplatin-Induced Acute Kidney Injury” (J Med Chem, 2024).

Tests used:
[1] = Cytotoxicity against human HK-2 cells incubated for 72 hrs by MTT assay; type: toxicity, cell-based
[2] = tested on: HK-2; assay: Protection against cisplatin-induced nephrotoxicity in human HK-2 cells assessed as cell viability at 5 uM preincubated with compound for 2 hrs followed by cisplatin induction and measured after 72 hrs by MTT assay (reference value: 37.37 +/- 1.35%); type: functional; settings: time 74 hrs, read-out: Activity
[3] = tested on: HK-2; assay: Protection against cisplatin-induced nephrotoxicity in human HK-2 cells assessed as cell viability at 1 uM preincubated with compound for 2 hrs followed by cisplatin induction and measured after 72 hrs by MTT assay (reference value: 37.37 +/- 1.35%); type: functional; settings: time 74 hrs, read-out: Activity
[4] = tested on: HK-2; assay: Protection against cisplatin-induced nephrotoxicity in human HK-2 cells assessed as cell viability at 10 uM preincubated with compound for 2 hrs followed by cisplatin induction and measured after 72 hrs by MTT assay (reference value: 37.37 +/- 1.35%); type: functional; settings: time 74 hrs, read-out: Activity

| Structure (SMILES) | IC50 at 72 h [1] | viability at 5 µM [2] | viability at 1 µM [3] | viability at 10 µM [4] |
| --- | --- | --- | --- | --- |
| COc1c(CO)c2c(c(OC)c1C(=O)c1ccccc1)CC1C[C@@H]3[C@H](CC1(C)O2)C3(C)C (some centres undefined) | 6.42 µM |  |  |  |
| COc1c2c(c(C(=O)O)c(OC)c1C(=O)c1ccccc1)OC1(C)CCCC1C2 (centres undefined) | > 10 µM | 29.6% | 32.3% | 32.6% |
| CC12CCCCC1Cc1c(O)c(C=O)c(O)c(C(=O)c3ccccc3)c1O2 (centres undefined) | > 10 µM | 41.3% | 33.6% | 42.5% |
| COc1c(CN2CCN(C)CC2)c(OC)c(C(=O)c2ccccc2)c2c1CC1CCCCC1(C)O2 (centres undefined) | > 10 µM | 24.2% | 30.4% | 25.9% |
| COc1c2c(c(C(=O)c3ccccc3)c(OC)c1C(=O)O)OC1(C)C[C@H]3[C@@H](CC1C2)C3(C)C (some centres undefined) | > 10 µM |  | 30.2% | 40% |
| CC12CCCCC1Cc1c(O)c(C(=O)c3ccccc3)c(O)c(C=O)c1O2 (centres undefined) | > 10 µM | 39.3% | 34.8% | 38% |
| COc1c2c(c(C(=O)O)c(OC)c1C(=O)c1ccccc1)OC1(C)C[C@H]3[C@@H](CC1C2)C3(C)C (some centres undefined) | > 10 µM | 21.6% | 31.5% | 25.4% |
| COc1c(C=O)c(OC)c(C(=O)c2ccccc2)c2c1CC(C)C(C)(C)O2 (centres undefined) | > 10 µM | 30.4% | 26.8% | 43.5% |
| CC12C[C@H]3[C@@H](CC1Cc1c(O)c(C=O)c(O)c(C(=O)c4ccccc4)c1O2)C3(C)C (some centres undefined) | 7.81 µM |  |  |  |
| COc1c2c(c(CN3CCN(C)CC3)c(OC)c1C(=O)c1ccccc1)OC(C)(C)C(C)C2 (centres undefined) | > 10 µM | 33% | 39.7% | 38.2% |
| COc1c(CO)c2c(c(OC)c1C(=O)c1ccccc1)CC1CCCC1(C)O2 (centres undefined) | > 10 µM | 37.5% | 34.9% | 45.4% |
| COc1c2c(c(C(=O)O)c(OC)c1C(=O)c1ccccc1)OC1(C)CCCCC1C2 (centres undefined) | > 10 µM | 30.7% | 38.2% | 28% |
| COc1c(C=O)c2c(c(OC)c1C(=O)c1ccccc1)CC1CCCCC1(C)O2 (centres undefined) | > 10 µM | 35.2% | 34.1% | 44.9% |
| COc1c(CN2CCN(C)CC2)c(OC)c(C(=O)c2ccccc2)c2c1CC1CCCC1(C)O2 (centres undefined) | > 10 µM | 37.5% | 38% | 43.7% |
| COc1c2c(c(C(=O)c3ccccc3)c(OC)c1C(=O)O)OC1(C)CCCC1C2 (centres undefined) | > 10 µM | 35.2% | 37.2% | 31.8% |
| COc1c(CN2CCN(C)CC2)c(OC)c(C(=O)c2ccccc2)c2c1CC1C[C@@H]3[C@H](CC1(C)O2)C3(C)C (some centres undefined) | > 10 µM | 40.1% | 39.9% | 18.5% |
| COc1c(CO)c(OC)c(C(=O)c2ccccc2)c2c1CC1CCCC1(C)O2 (centres undefined) | > 10 µM | 25.9% | 35% | 26.5% |
| COc1c2c(c(C(=O)c3ccccc3)c(OC)c1C(=O)O)OC1(C)CCCCC1C2 (centres undefined) | > 10 µM | 35.9% | 38.8% | 25.7% |
| COc1c(C=O)c(OC)c(C(=O)c2ccccc2)c2c1CC1CCCC1(C)O2 (centres undefined) | > 10 µM | 44.9% | 38.2% | 49.4% |
| COc1c(C=O)c(OC)c(C(=O)c2ccccc2)c2c1CC1CCCCC1(C)O2 (centres undefined) | > 10 µM | 34.4% | 35.3% | 30.1% |
| CC12C[C@H]3[C@@H](CC1Cc1c(O)c(C(=O)c4ccccc4)c(O)c(C=O)c1O2)C3(C)C (some centres undefined) | 9.31 µM |  |  |  |
